Test results from patent publication US7550451B2, “Progesterone receptor modulators with increased antigonadotropic activity for female birth control and hormone replacement therapy” (Bayer Schering Pharma AG, priority 2002, dated 2009).

Tests used:
adult female rats = experiment: Nidation-inhibiting test (antifertile effects in the perinidation phase); type: in vivo; conditions: day 5-7 of pregnancy, rat
Procedure: The determination of the progesterone-antagonistic activities was carried out on adult female rats in the nidation-inhibiting test. The principle of the test is described as follows: progesterone preserves pregnancy in all stages. An early-abortive action can accordingly be expected from competitive progesterone antagonists. Female rats (Schoe strain: WIST Tierzucht GmbH Schönwalde) with a weight of 180-200 g were subjected daily to a cycle control and paired up in proestrus. The beginning of pregnancy was determined by detecting sperm in the vaginal smear on the same day (=day 1 of pregnancy=d1 p.c.). From the 5th-7th day of pregnancy, the test substances were injected subcutaneously daily. On the 9th day, vaginal smears were taken, then the animals were autopsied and the uteri were prepared. The degeneration of implants and pathological, hemorrhagic and otherwise abnormal nidation sites were counted as abortions and are shown in Table 2.

Androgen receptor = molecular target: T1, Androgen receptor (Rattus norvegicus, UniProt P15207); experiment: Receptor binding affinity, androgen receptor (competitive binding, 3H-metribolone); conditions: prostate cytosol of castrated rat; for AR relative molar binding affinity (RBA) a) against RU 1881: reference RU 1881 (metribolone); for AR relative molar binding affinity (RBA) b) against dihydrotestosterone (DHT): reference dihydrotestosterone
T1 construct: Prostate cytosol of the castrated rat; from tissue; host or cells: prostate cytosol of castrated rat
T1 sequence (P15207 1-902): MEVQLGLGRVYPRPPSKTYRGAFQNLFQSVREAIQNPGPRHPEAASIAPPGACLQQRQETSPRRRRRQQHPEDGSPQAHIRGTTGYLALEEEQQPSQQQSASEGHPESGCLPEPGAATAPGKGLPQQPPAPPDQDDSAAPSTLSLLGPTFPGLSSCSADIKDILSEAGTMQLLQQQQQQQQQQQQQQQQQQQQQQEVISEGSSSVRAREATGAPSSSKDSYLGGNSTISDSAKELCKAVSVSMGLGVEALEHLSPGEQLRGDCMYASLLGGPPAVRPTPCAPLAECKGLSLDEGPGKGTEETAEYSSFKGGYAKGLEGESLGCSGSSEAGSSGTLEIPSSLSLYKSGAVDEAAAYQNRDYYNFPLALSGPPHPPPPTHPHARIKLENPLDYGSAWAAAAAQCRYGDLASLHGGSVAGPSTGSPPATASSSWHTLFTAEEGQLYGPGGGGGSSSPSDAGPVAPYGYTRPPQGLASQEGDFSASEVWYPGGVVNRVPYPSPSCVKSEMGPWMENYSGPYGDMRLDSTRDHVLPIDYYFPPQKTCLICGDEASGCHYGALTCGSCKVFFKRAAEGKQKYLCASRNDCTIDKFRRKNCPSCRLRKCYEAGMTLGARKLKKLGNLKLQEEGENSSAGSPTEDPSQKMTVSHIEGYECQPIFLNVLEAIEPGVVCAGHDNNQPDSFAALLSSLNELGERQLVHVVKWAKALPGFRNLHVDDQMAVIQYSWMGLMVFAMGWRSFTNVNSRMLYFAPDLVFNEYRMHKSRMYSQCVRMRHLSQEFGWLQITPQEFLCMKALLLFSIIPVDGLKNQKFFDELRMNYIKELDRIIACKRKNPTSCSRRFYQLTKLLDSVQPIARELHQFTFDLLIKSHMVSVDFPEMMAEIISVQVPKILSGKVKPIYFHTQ
Procedure: (§1) The receptor binding affinity was determined by competitive binding of a specifically binding ^3H-labeled hormone (tracer) and the compound to be tested on receptors in the cytosol from animal target organs. In this case, receptor saturation and reaction equilibrium were sought.
(§2) The tracers and increasing concentrations of the compound to be tested (competitor) were co-incubated with the receptor-containing cytosol fraction at 0-4° C. over 18 hours. After separation of the unbonded tracer with carbon-dextran suspension, the receptor-bonded tracer portion was measured for each concentration, and the IC50 was determined from the concentration sequence. As a quotient of the IC50 values of the reference substance and the compound to be tested (×100%), the relative molar binding affinity (RBA) was calculated (RBA of the reference substance=100%).
Prostate cytosol of the castrated rat; prostates stored at −30° C.; buffer: TED with 10% glycerol as well as 2 μmol of triamcinolone acetonide. Tracer: ^3H-metribolone 4 nmol; reference substances: metribolone (RU 1881) or 5α-dihydrotestosterone.

Progesterone receptor = molecular target: T2, Progesterone receptor (Oryctolagus cuniculus, UniProt P06186); experiment: Receptor binding affinity, progesterone receptor (competitive binding, 3H-ORG 2058); conditions: Progesterone = 100%; uterus cytosol of estradiol-primed rabbit
T2 construct: Uterus cytosol of the estradiol-primed rabbit; from tissue; host or cells: uterus cytosol of estradiol-primed rabbit
T2 sequence (P06186 1-930): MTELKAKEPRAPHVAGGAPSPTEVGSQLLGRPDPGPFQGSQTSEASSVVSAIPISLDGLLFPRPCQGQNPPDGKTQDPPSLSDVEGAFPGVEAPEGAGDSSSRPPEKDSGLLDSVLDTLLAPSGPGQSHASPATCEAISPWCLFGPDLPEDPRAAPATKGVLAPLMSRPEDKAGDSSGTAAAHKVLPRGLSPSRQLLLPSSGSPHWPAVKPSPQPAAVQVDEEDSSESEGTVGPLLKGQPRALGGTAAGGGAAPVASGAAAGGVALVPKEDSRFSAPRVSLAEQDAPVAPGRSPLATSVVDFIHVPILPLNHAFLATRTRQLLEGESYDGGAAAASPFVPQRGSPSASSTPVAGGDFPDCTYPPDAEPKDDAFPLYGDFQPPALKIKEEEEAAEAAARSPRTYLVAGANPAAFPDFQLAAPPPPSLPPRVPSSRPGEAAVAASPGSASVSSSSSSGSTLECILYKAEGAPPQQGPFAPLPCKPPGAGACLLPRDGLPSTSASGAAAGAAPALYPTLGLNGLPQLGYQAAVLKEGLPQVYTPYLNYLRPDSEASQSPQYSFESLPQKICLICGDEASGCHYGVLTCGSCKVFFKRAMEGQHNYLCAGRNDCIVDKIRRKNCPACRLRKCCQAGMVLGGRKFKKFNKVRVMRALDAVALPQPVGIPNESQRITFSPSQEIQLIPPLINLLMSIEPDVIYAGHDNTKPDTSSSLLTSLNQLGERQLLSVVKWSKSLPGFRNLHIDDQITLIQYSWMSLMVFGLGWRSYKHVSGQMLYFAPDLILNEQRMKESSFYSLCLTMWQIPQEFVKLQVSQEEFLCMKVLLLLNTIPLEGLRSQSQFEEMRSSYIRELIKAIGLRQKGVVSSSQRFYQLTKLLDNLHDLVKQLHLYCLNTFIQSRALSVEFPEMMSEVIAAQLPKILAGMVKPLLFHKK
Procedure: as §1, §2
Uterus cytosol of the estradiol-primed rabbit; homogenized in TED buffer (20 mmol of Tris/HCl, pH 7.4; 1 mmol of ethylenediamine tetraacetate, 2 mmol of dithiothreitol) with 250 mmol of saccharose; stored at −30° C. Tracer: ^3H-ORG 2058, 5 nmol; reference substance: progesterone.

Glucocorticoid receptor = molecular target: T3, Glucocorticoid receptor (Rattus norvegicus, UniProt P06536); experiment: Receptor binding affinity, glucocorticoid receptor (competitive binding, 3H-dexamethasone); conditions: Dexamethasone = 100%; thymus cytosol of adrenalectomized rat
T3 construct: Thymus cytosol of the adrenalectomized rat; from tissue; host or cells: thymus cytosol of adrenalectomized rat
T3 sequence (P06536 1-795): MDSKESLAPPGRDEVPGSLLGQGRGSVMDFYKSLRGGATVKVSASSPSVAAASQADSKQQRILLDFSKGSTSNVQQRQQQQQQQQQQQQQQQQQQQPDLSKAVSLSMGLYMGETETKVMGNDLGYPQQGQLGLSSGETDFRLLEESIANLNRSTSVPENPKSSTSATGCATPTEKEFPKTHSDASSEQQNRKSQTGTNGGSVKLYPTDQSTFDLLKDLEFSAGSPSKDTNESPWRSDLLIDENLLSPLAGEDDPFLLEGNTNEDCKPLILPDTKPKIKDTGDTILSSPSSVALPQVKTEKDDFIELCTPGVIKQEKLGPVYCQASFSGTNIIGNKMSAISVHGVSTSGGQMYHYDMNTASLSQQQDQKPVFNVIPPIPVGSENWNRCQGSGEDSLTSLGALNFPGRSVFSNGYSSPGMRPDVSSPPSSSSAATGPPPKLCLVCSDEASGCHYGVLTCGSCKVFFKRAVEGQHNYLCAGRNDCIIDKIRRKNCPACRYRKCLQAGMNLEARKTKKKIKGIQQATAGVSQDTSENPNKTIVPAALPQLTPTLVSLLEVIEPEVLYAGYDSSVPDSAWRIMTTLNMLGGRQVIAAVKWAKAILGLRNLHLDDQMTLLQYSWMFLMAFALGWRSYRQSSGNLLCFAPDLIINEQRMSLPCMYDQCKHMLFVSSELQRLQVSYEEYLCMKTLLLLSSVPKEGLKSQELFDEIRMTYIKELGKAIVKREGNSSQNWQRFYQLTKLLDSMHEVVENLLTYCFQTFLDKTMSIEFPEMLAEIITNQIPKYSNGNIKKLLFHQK
Procedure: as §1, §2
Thymus cytosol of the adrenalectomized rat, thymi stored at −30° C.; buffer: TED. Tracer: ^3H-Dexamethasone, 20 nmol; reference substance: dexamethasone.

SMILES | Rate of Animals with Complete Inhibition of Nidation (adult female rats; 0.3 mg/animal/day s.c.) | Rate of Animals with Complete Inhibition of Nidation (adult female rats; 1.0 mg/animal/day s.c.) | Rate of Animals with Complete Inhibition of Nidation (adult female rats; 3.0 mg/animal/day s.c.) | AR relative molar binding affinity (RBA) a) against RU 1881 (Androgen receptor) | AR relative molar binding affinity (RBA) b) against dihydrotestosterone (DHT) (Androgen receptor) | PR relative molar binding affinity (RBA) (Progesterone receptor) | GR relative molar binding affinity (RBA) (Glucocorticoid receptor)
CC#C[C@]1(O)CC[C@H]2[C@@H]3CCC4=CC(=O)CCC4=C3[C@@H](c3ccc(N(C)C)cc3)C[C@@]21C [RU 38 486, reference compound] | 0/5 | 2/5 | 5/5 |  |  |  | 
CC1(O)CCC2C3CCC4=C(Br)C(=O)CCC4=C3C(c3ccc(C=NO)cc3)CC21C (stereo not drawn) [Example 6, 4-(4′-Bromo-17β-hydroxy-17α-methyl-3-oxoestra-4,9-dien-11β-yl)benzaldehyde-1(E)-oxime] |  | 5/5 |  | a) 14% | b) 22% | 106% | 0.76%
CCNC(=O)O[C@H]1CC[C@H]2[C@@H]3CCC4=CC(=O)CCC4=C3[C@@H](c3ccc(/C=N/O)cc3)C[C@]12C [Example 4, 4-[17β-(N-Ethylamino)carbonyloxy-3-oxoestra-4,9-dien-11β-yl]benzaldehyde-1(E)-oxime] |  |  |  | a) 2.9% | b) 4.5% | 13% | 11%
CO[C@H]1CC[C@H]2[C@@H]3CCC4=CC(=O)CCC4=C3[C@@H](c3ccc(/C=N/O)cc3)C[C@]12C [Example 5, 4-(17β-Methoxy-3-oxoestra-4,9-dien-11β-yl)benzaldehyde-1(E)-oxime] |  | 0/4 |  | a) 21% | b) 32% | 159% | 14%
CC(=O)O/N=C/c1ccc([C@H]2C[C@]3(C)[C@@H](OC(C)=O)CC[C@H]3[C@@H]3CCC4=C(Br)C(=O)CCC4=C32)cc1 [Example 14, 4-(17β-Acetoxy-4′-bromo-3-oxoestra-4,9-dien-11β-yl)benzaldehyde-1-(E)-O-acetyloxime] |  |  |  | a) 6% | b) 10% | 23% | 0.3%
CC12CC(c3ccc(C=NO)cc3)C3=C4CCC(=O)C(Br)=C4CCC3C1CCC2(O)C(F)(F)F (stereo not drawn) [Example 8, 4-(4′-Bromo-17β-hydroxy-17α-trifluoromethyl-3-oxoestra-4,9-dien-11β-yl)benzaldehyde-1(E)-oxime] |  |  |  | a) 7.8% | b) 11.8% | 87% | 1.8%
CC12CC(c3ccc(C=NO)cc3)C3=C4CCC(=O)C(Br)=C4CCC3C1CCC2O (stereo not drawn) [Example 19, 4-(4′-Bromo-17β-hydroxy-3-oxoestra-4,9-dien-11β-yl)benzaldehyde-1(E)-oxime] |  |  |  | a) 9% | b) 16% | 51% | 0.5%
